Experimental data: US20230124361A1, “SMALL MOLECULE STING ANTAGONISTS” (CURADEV PHARMA PVT. LTD., priority 2020, published 2023)

molecular target: T1, STING (Homo sapiens, UniProt Q86WV6, G230A/H232R/R293Q/R71H); experiment: Reporter gene expression assay in THP1-Dual cells (IRF pathway Lucia luciferase, 2',3'-cGAMP stimulation); assay type: cell-based; settings: 10 min preincubation, 5 μM 2',3'-cGAMP, 20 hr, IRF reporter QUANTI-Luc, read-out: THP-1 (HAQ) Activity
T1 construct: host or cells: THP1-Dual cells (human THP-1 monocyte line with Lucia/SEAP reporters)
Protocol: Reporter Gene Expression Assay in THP-1 Cells
THP1-Dual™ cells (Invivogen) were derived from the human THP-1 monocyte cell line by stable integration of two inducible reporter constructs. As a result, THP1-Dual™ cells allow the simultaneous study of the IRF pathway, by assessing the activity of a secreted luciferase (Lucia) and the NF-κB pathway, by monitoring the activity of secreted SEAP. 5×10^4 THP1-Dual™ cells were seeded in 384-well plates in growth medium and preincubated with novel compounds for 10 minutes followed by stimulation with 5 μM 2′,3′-cGAMP. After 20 hr of stimulation the supernatant was removed and the IRF pathway reporter protein was readily measured in the cell culture supernatant using QUANTI-Luc™ (Invivogen), a luciferase detection reagent on a Spectramax i3X luminometer.
In the tables below, IC50 value ranges for exemplary compounds are given. The IC50 ranges are indicated as “A” for values less than or equal to 1 μM, “B” for values greater than 1 μM and less than or equal to 10 μM, and “C” for values greater than 10 μM.

T1 sequence (Q86WV6 whole entry R71H/G230A/H232R/R293Q): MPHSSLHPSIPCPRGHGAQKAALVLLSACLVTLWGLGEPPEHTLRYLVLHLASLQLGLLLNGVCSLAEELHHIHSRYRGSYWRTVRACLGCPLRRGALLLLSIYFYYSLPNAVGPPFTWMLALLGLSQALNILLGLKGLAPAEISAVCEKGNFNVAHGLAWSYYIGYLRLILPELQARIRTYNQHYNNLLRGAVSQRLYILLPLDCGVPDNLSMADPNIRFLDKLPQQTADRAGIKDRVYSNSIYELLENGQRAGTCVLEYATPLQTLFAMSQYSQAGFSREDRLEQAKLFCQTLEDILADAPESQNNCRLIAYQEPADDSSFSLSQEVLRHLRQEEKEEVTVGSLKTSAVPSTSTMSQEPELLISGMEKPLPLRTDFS

Row | Compound | IC50 [µM]
1 | O=C(Nc1ccc2c(c1)OCC(=O)N2Cc1ccccc1)NC1CCC(c2ccccc2)CC1 (mixture of isomers) [Example 137, 1-(4-benzyl-3-oxo-3,4-dihydro-2H-benzo[b][1, 4]oxazin-7-yl)-3-(4-phenyl-cyclohexyl)urea] | 1 to 10
2 | O=C(Nc1ccc2c(c1)N(Cc1ccccc1)C(=O)CS2)Nc1ccc2cc[nH]c2c1 [Example 1, 1-(4-Benzyl-3-oxo-3,4-dihydro-2H-benzo[b][1,4]thiazin-6-yl)-3-(1H-indol-6-yl)urea] | 1 to 10
3 | O=C(Nc1cccnc1)Nc1ccc2c(c1)N(Cc1ccccc1)C(=O)CS2 [Example 4, 1-(4-benzyl-3-oxo-3,4-dihydro-2H-benzo[b][1, 4]thiazin-6-yl)-3-(pyridin-3-yl)urea] | 1 to 10
4 | O=C(Nc1ccncc1)Nc1ccc2c(c1)N(Cc1ccccc1)C(=O)CS2 [Example 6, 1-(4-benzyl-3-oxo-3,4-dihydro-2H-benzo[b][1, 4]thiazin-6-yl)-3-(pyridin-4-yl)urea] | 1 to 10
5 | N#Cc1ccc(CNC(=O)Nc2ccc3c(c2)N(Cc2ccccc2)C(=O)CS3)cc1 [Example 12, 1-(4-benzyl-3-oxo-3,4-dihydro-2H-benzo[b][1, 4]thiazin-6-yl)-3-(4-cyanobenzyl) urea] | > 10
6 | O=C(Nc1ccc(F)cc1)Nc1ccc2c(c1)N(Cc1cccnc1)C(=O)CS2 [Example 16, l-(4-fluorophenyl)-3-(3-oxo-4-(pyridin-3-ylmethyl)-3,4-dihydro-2H-benzo[b] [1,4]thiazin-6-yl)urea] | > 10
7 | O=C(Nc1ccc(F)cc1)Nc1ccc2c(c1)N(Cc1ccncc1)C(=O)CS2 [Example 17, l-(4-fluorophenyl)-3-(3-oxo-4-(pyridin-4-ylmethyl)-3,4-dihydro-2H-benzo[b][1, 4]thiazin-6-yl)urea] | > 10
8 | O=C(Nc1ccc2c(c1)N(Cc1ccccc1)C(=O)CS2)Nc1c[nH]c2ccccc12 [Example 18, 1-(4-benzyl-3-oxo-3,4-dihydro-2H-benzo[b][1, 4]thiazin-6-yl)-3-(1H-indol-3-yl)urea] | ≤ 1
9 | O=C(Nc1ccc2c(c1)N(Cc1ccccc1)C(=O)CS2)Nc1cccc2cc[nH]c12 [Example 19, 1-(4-benzyl-3-oxo-3,4-dihydro-2H-benzo[b][1, 4]thiazin-6-yl)-3-(1H-indol-7-yl)urea] | 1 to 10
10 | O=C(Nc1ccc2c(c1)OCCO2)Nc1ccc2c(c1)N(Cc1ccccc1)C(=O)CS2 [Example 23, 1-(4-benzyl-3-oxo-3,4-dihydro-2H-benzo[b] [1,4]thiazin-6-yl)-3-(2,3-dihydrobenzo [b][1,4]dioxin-6-yl)urea] | 1 to 10
11 | O=C(Nc1ccc(F)cc1)Nc1ccc2c(c1)N(Cc1cn3ccccc3n1)C(=O)CS2 [Example 26, 1-(4-fluorophenyl)-3-(4-(imidazo [1,2-a]pyridin-2-ylmethyl)-3-oxo-3,4-dihydro-2H-benzo[b][1, 4]thiazin-6-yl)urea] | 1 to 10
12 | Cn1ccc2ccc(NC(=O)Nc3ccc4c(c3)N(Cc3ccccc3)C(=O)CS4)cc21 [Example 27, 1-(4-benzyl-3-oxo-3,4-dihydro-2H-benzo[b] [1,4]thiazin-6-yl)-3-(1-methyl-1H-indol-6-yl)urea] | > 10
13 | O=C1CCc2ccc(NC(=O)Nc3ccc4c(c3)N(Cc3ccccc3)C(=O)CS4)cc2N1 [Example 29, 1-(4-benzyl-3-oxo-3,4-dihydro-2H-benzo[b][1, 4]thiazin-6-yl)-3-(2-oxo-1,2,3,4-tetrahydro-quinolin-7-yl)urea] | 1 to 10
14 | CN(C(=O)Nc1ccc2cc[nH]c2c1)c1ccc2c(c1)N(Cc1ccccc1)C(=O)CS2 [Example 31, 1-(4-benzyl-3-oxo-3,4-dihydro-2H-benzo[b][1, 4]thiazin-6-yl)-3-(1H-indol-6-yl)-1-methylurea] | 1 to 10
15 | CC1Sc2ccc(NC(=O)Nc3ccccc3)cc2N(Cc2ccccc2)C1=O (centres unmarked) [Example 32, 1-(4-benzyl-2-methyl-3-oxo-3,4-dihydro-2H-benzo[b][1, 4]thiazin-6-yl)-3-phenylurea] | 1 to 10
16 | NC(=O)c1ccc(NC(=O)Nc2ccc3c(c2)N(Cc2ccccc2)C(=O)CS3)cc1 [Example 33, 4-(3-(4-benzyl-3-oxo-3,4-dihydro-2H-benzo[b][1, 4]thiazin-6-yl)ureido) benzamide] | 1 to 10
17 | C[C@H]1c2ccc(NC(=O)Nc3ccc(F)cc3)cc2N(Cc2ccccc2)C(=O)N1C [Example 38, (S)-1-(1-benzyl-3,4-dimethyl-2-oxo-1,2,3,4-tetrahydro-quinazolin-7-yl)-3-(4-fluorophenyl)urea] | > 10
18 | CN1Cc2ccc(NC(=O)Nc3ccc4cc[nH]c4c3)cc2N(Cc2ccccc2)C1=O [Example 40] | 1 to 10
19 | O=C1CSc2ccc(COCc3ccc(F)cc3)cc2N1Cc1c(F)cccc1Cl [Example 42] | 1 to 10
20 | O=C1CSc2ccc(-c3ncc(-c4ccccc4)[nH]3)cc2N1Cc1c(F)cccc1Cl [Example 43, 4-(2-Chloro-6-fluorobenzyl)-6-(t-phenyl-1H-imidazol-2-yl)-2H-benzo[b][1,4]thiazin-3(4H)-one] | 1 to 10
21 | O=C1CSc2ccc(-c3nnc(Cc4ccccc4)[nH]3)cc2N1Cc1c(F)cccc1Cl [Example 45] | 1 to 10
22 | O=C1CSc2ccc(-c3nc(-c4ccccc4)co3)cc2N1Cc1c(F)cccc1Cl [Example 46, 4-(2-Chloro-6-fluorobenzyl)-6-(4-phenyloxazol-2-yl)-2H-benzo[b][1,4]thiazin-3(4H)-one] | > 10
23 | O=C(Cc1ccc2cc[nH]c2c1)Nc1ccc2c(c1)N(Cc1ccccc1)C(=O)CS2 [Example 47, N-(4-Benzyl-3-oxo-3,4-dihydro-2H-benzo[b][1,4]thiazin-6-yl)-2-(1H-indol-6-yl)acetamide] | 1 to 10
24 | O=C(Cc1ccco1)Nc1ccc2c(c1)N(Cc1ccccc1)C(=O)CS2 [Example 48, N-(4-benzyl-3-oxo-3,4-dihydro-2H-benzo[b][1,4]thiazin-6-yl)-2-(furan-2-yl)acetamide] | > 10
25 | O=C(Nc1ccc2c(c1)N(Cc1ccccc1)CCS2)Nc1ccc2cc[nH]c2c1 [Example 50, 1-(4-Benzyl-3,4-dihydro-2H-benzo[b][1,4]thiazin-6-yl)-3-(1H-indol-6-yl)urea] | ≤ 1
26 | O=C(Nc1ccc(F)cc1)Nc1ccc2c(c1)SCC(=O)N2Cc1ccccc1 [Example 52, 1-(4-benzyl-3-oxo-3,4-dihydro-2H-benzo[b][1, 4]thiazin-7-yl)-3-(4-fluorophenyl) urea] | 1 to 10

The next lines start with the values.

Row | IC50 [µM] | Compound
27 | 1 to 10 | O=C(Nc1ccccc1)Nc1ccc2c(c1)N(Cc1ccccc1)C(=O)CS2 [Example 2, 1-(4-benzyl-3-oxo-3,4-dihydro-2H-benzo[b][1, 4]thiazin-6-yl)-3-phenylurea]
28 | 1 to 10 | O=C(Nc1ccc(F)cc1)Nc1ccc2c(c1)N(Cc1ccccc1)C(=O)CS2 [Example 3, 1-(4-benzyl-3-oxo-3,4-dihydro-2H-benzo[b][i, 4]thiazin-6-yl)-3-(4-fluorophenyl) urea]
29 | 1 to 10 | O=C(Nc1ccc2c(c1)N(Cc1ccccc1)C(=O)CS2)Nc1ccc2[nH]ccc2c1 [Example 9, 1-(4-benzyl-3-oxo-3,4-dihydro-2H-benzo[b][1, 4]thiazin-6-yl)-3-(1H-indol-5-yl)urea]
30 | 1 to 10 | O=C(Nc1ccc2c(c1)N(Cc1noc3ccccc13)C(=O)CS2)Nc1ccc2cc[nH]c2c1 [Example 24, 1-(4-(benzo[d]isoxazol-3-ylmethyl)-3-oxo-3,4-dihydro-2H-benzo [b][1,4]thiazin-6-yl)-3-(1H-indol-6-yl)urea]
31 | 1 to 10 | Nc1cccc(NC(=O)Nc2ccc3c(c2)N(Cc2ccccc2)C(=O)CS3)c1 [Example 25, 1-(3-aminophenyl)-3-(4-benzyl-3-oxo-3,4-dihydro-2H-benzo [b][1,4]thiazin-6-yl)urea]
32 | 1 to 10 | O=C(Nc1ccc2c(c1)N(Cc1ccccc1)C(=O)CS2)Nc1ccc2cn[nH]c2c1 [Example 28, 1-(4-benzyl-3-oxo-3,4-dihydro-2H-benzo[b][1, 4]thiazin-6-yl)-3-(1H-indazol-6-yl)urea]
33 | 1 to 10 | O=C(Nc1ccc2c(c1)N(Cc1ccccc1)C(=O)CS2)Nc1ccc2nc[nH]c2c1 [Example 30, 1-(1H-benzo[d]imidazol-6-yl)-3-(4-benzyl-3-oxo-3,4-dihydro-2H-benzo[b][1, 4]thiazin-6-yl)urea]
34 | 1 to 10 | CN1Cc2ccc(NC(=O)Nc3ccc(F)cc3)cc2N(Cc2ccccc2)C1=O [Example 39, 1-(1-Benzyl-3-methyl-2-oxo-1,2,3,4-tetrahydroquinazolin-7-yl)-3-(4-fluorophenyl)urea]
35 | 1 to 10 | O=C1CSc2ccc(OCCc3ccc(F)cc3)cc2N1Cc1c(F)cccc1Cl [Example 41, 4-(2-Chloro-6-fluorobenzyl)-6-(4-fluorophenethoxy)-2H-benzo[b][1,4]thiazin-3(4H)-one]
36 | 1 to 10 | O=C1CSc2ccc(-c3n[nH]c(-c4ccccc4)n3)cc2N1Cc1c(F)cccc1Cl [Example 44, 4-(2-Chloro-6-fluorobenzyl)-6-(5-phenyl-1H-1,2,4-triazol-3-yl)-2H-benzo[b][1,4]thiazin-3(4H)-one]
37 | > 10 | O=C(c1ccccc1)N1CCSc2ccc(S(=O)(=O)NCc3ccco3)cc21 [Example 49, 4-benzoyl-N-(furan-2-ylmethyl)-3,4-dihydro-2H-benzo[b][1,4]thiazine-6-sulfonamide]
38 | 1 to 10 | O=C(Nc1ccc2c(c1)NCCO2)Nc1ccc2c(c1)N(Cc1ccccc1)C(=O)CS2 [Example 51, 1-(4-benzyl-3-oxo-3,4-dihydro-2H-benzo[b][1, 4]thiazin-6-yl)-3-(3,4-dihydro-2H-benzo[b][1, 4]oxazin-6-yl)urea]
